These results are taken from patent publication US20110021530A1, “PYRIDAZINE DERIVATIVES AND THEIR USE AS THERAPEUTIC AGENTS IN THE TREATMENT OF SKIN DISORDERS” (XENON PHARMACEUTICALS INC., priority 2008, published 2011).

One series has as its system HEPG2. The experiment in a line: HEPG2 IC50. As to conditions: Homo sapiens. In kind it is cell-based.
The target in series [1] is T1, stearoyl-CoA desaturase (SCD) (Mus musculus, UniProt P13516).
T1 construct: Reactions are started by adding 2 mg of microsomal protein; from tissue; host or cells: liver microsomes of male ICR mice on a high-carbohydrate, low fat diet
T1 sequence (P13516 1-355): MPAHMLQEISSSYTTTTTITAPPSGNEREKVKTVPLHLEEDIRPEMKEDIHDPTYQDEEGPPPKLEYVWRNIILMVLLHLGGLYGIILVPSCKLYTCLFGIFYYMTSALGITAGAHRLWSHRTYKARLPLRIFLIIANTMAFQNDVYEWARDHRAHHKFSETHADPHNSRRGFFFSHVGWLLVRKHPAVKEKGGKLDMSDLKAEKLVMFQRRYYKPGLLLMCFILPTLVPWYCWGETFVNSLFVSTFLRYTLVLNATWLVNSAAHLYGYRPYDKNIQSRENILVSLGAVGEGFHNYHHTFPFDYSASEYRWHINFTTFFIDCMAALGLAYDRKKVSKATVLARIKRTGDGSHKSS
The experiment in a line: HTS microsomal assay of stearoyl-CoA desaturase inhibition using mouse liver microsomes. In kind it is biochemical. Particulars: % SCD enzyme activity remaining at 10 μM test compound. The method, then: The absence of mitochondrial contamination is enzymatically assessed.
The compounds are analyzed with an HTS microsomal assay.

A further series has as its target T2, SCD (Mus musculus, UniProt P13516).
T2 sequence (P13516 1-355): T1 sequence (P13516 1-355)
Nature of the series: Mouse SCD IC50 determination for compounds active in the HTS assay. In kind it is biochemical.

Regarding `O=C(NCCc1ccccc1)Nc1ccc(N2CCN(C(=O)c3ccccc3C(F)(F)F)CC2)nn1`, the figures for the IC50 with HEPG2 and at SCD were 230 nM and 60 nM, respectively. In series [1], the “Mouse microsome SCD activity % remaining @ 10 μM” value was determined as 15%.

Take `O=C(Nc1ccc(N2CCN(C(=O)c3ccccc3C(F)(F)F)CC2)nn1)Nc1ccccc1F` [1-(2-FLUOROPHENYL)-3-{6-[4-(2-TRIFLUOROMETHYLBENZOYL)PIPERAZIN-1-YL]-PYRIDAZIN-3-YL}UREA]: in series [1], the “Mouse microsome SCD activity % remaining @ 10 μM” value was found to be 73%.

On to `O=C(NCc1ccc(F)cc1)Nc1ccc(N2CCN(C(=O)c3ccccc3C(F)(F)F)CC2)nn1` [1-(4-FLUOROBENZYL)-3-{6-[4-(2-TRIFLUOROMETHYLBENZOYL)PIPERAZIN-1-YL]-PYRIDAZIN-3-YL}UREA], for which the IC50 (in general, the concentration that gives 50% inhibition) in the series on HEPG2 amounted to 30 nM; against SCD, 70 nM. Further, the “Mouse microsome SCD activity % remaining @ 10 μM” value in series [1] is 6%.

Turning to `O=C(Nc1ccc(F)cc1)Nc1ccc(N2CCN(C(=O)c3ccccc3C(F)(F)F)CC2)nn1` [1-(4-FLUOROPHENYL)-3-{6-[4-(2-TRIFLUOROMETHYLBENZOYL)PIPERAZIN-1-YL]-PYRIDAZIN-3-YL}UREA], the “Mouse microsome SCD activity % remaining @ 10 μM” value in series [1] is given as 82%.

Take `O=C(NCc1ccccc1)Nc1ccc(N2CCN(C(=O)c3ccccc3C(F)(F)F)CC2)nn1` [1-BENZYL-3-{6-[4-(2-TRIFLUOROMETHYLBENZOYL)PIPERAZIN-1-YL]PYRIDAZIN-3-YL}UREA]: the 50% inhibitory concentration (IC50) came out at 50 nM with HEPG2 and 40 nM at SCD. For the same compound, the “Mouse microsome SCD activity % remaining @ 10 μM” value in series [1] is reported as 8%.

Regarding `CCCCNC(=O)Nc1ccc(N2CCN(C(=O)c3ccccc3C(F)(F)F)CC2)nn1` [1-BUTYL-3-{6-[4-(2-TRIFLUOROMETHYLBENZOYL)PIPERAZIN-1-YL]PYRIDAZIN-3-YL}UREA], the results for the concentration for half-maximal inhibition (IC50) with HEPG2 and against SCD were 210 nM and 70 nM, respectively. In addition, the “Mouse microsome SCD activity % remaining @ 10 μM” value in series [1] turned out to be 13%.

For `CCCCCNC(=O)Nc1ccc(N2CCN(C(=O)c3ccccc3C(F)(F)F)CC2)nn1` [1-PENTYL-3-{6-[4-(2-TRIFLUOROMETHYLBENZOYL)PIPERAZIN-1-YL]PYRIDAZIN-3-YL}UREA], the IC50 was determined as 40 nM in the series on HEPG2 and 10 nM against SCD. Besides, the “Mouse microsome SCD activity % remaining @ 10 μM” value in series [1] is on record as 6%.

Take `CC(NC(=O)Nc1ccc(N2CCN(C(=O)c3ccccc3C(F)(F)F)CC2)nn1)c1ccc(F)cc1` (centres unmarked) [1-[1-(4-Fluorophenyl)ethyl]-3-{6-[4-(2-trifluoromethylbenzoyl)piperazin-1-yl]pyridazin-3-yl}urea]: the “Mouse microsome SCD activity % remaining @ 10 μM” value in series [1] was found to be 45%.

In the case of `O=C(NCCCc1ccc(F)cc1)Nc1ccc(N2CCN(C(=O)c3ccccc3C(F)(F)F)CC2)nn1` [1-[3-(4-Fluorophenyl)propyl]-3-{6-[4-(2-trifluoromethylbenzoyl)piperazin-1-yl]pyridazin-3-yl}urea], the results for the IC50 with HEPG2 and at SCD were 350 nM and 1370 nM, respectively. Besides, the “Mouse microsome SCD activity % remaining @ 10 μM” value in series [1] turned out to be 14%.

In the case of `CCOC(=O)CCNC(=O)Nc1ccc(N2CCN(C(=O)c3ccccc3C(F)(F)F)CC2)nn1` [3-(3-{6-[4-(2-TRIFLUOROMETHYLBENZOYL)PIPERAZIN-1-YL]-PYRIDAZIN-3-YL}-UREIDO)PROPIONIC ACID ETHYL ESTER], the IC50 in the series on HEPG2 came out at 5430 nM; against SCD, 2770 nM. Also, the “Mouse microsome SCD activity % remaining @ 10 μM” value in series [1] is listed as 18%.

Consider `COC(=O)C(CC(C)C)NC(=O)c1ccc(N2CCN(C(=O)c3ccccc3C(F)(F)F)CC2)nn1` (centres unmarked) [4-METHYL-2-({6-[4-(2-TRIFLUOROMETHYLBENZOYL)PIPERAZIN-1-YL]-PYRIDAZINE-3-CARBONYL}AMINO)PENTANOIC ACID METHYL ESTER], for which, in series [1], the “Mouse microsome SCD activity % remaining @ 10 μM” value is on record as 69%.

Turning to `CC(C)(C)OC(=O)N1CCN(c2ccc(C(=O)NCCC3CC3)nn2)CC1` [4-[6-(2-CYCLOPROPYLETHYLCARBAMOYL)PYRIDAZIN-3-YL]PIPERAZINE-1-CARBOXYLIC ACID T-BUTYL ESTER], the “Mouse microsome SCD activity % remaining @ 10 μM” value in series [1] was 37%.

As to `CC(C)CCNC(=O)c1ccc(N2CCN(C(=O)OC(C)(C)C)CC2)nn1` [4-[6-(3-METHYLBUTYLCARBAMOYL)PYRIDAZIN-3-YL]PIPERAZINE-1-CARBOXYLIC ACID T-BUTYL ESTER], the midpoint of inhibition in the series on HEPG2, the IC50, lay at 1450 nM. In addition, the “Mouse microsome SCD activity % remaining @ 10 μM” value in series [1] came out at 11%.

Consider `O=C(NCCC1CC1)c1ccc(N2CCN(C(=O)C3CCCCC3)CC2)nn1` [6-(4-CYCLOHEXANECARBONYLPIPERAZIN-1-YL)PYRIDAZINE-3-CARBOXYLIC ACID (2-CYCLOPROPYLETHYL)AMIDE], for which the “Mouse microsome SCD activity % remaining @ 10 μM” value in series [1] came to 22%.

As for `CC(C)CCNC(=O)c1ccc(N2CCN(C(=O)c3nnn(Cc4ccccc4)c3C(F)(F)F)CC2)nn1` [6-[4-(1-BENZYL-5-TRIFLUOROMETHYL-1H-[1,2,3]TRIAZOLE-4-CARBONYL)-PIPERAZIN-1-YL]PYRIDAZINE-3-CARBOXYLIC ACID (3-METHYLBUTYL)AMIDE], in series [1], the “Mouse microsome SCD activity % remaining @ 10 μM” value stood at 61%.

As to `O=C(NCCC1CC1)c1ccc(N2CCN(C(=O)C3(O)CC3)CC2)nn1` [6-[4-(1-HYDROXYCYCLOPROPANECARBONYL)PIPERAZIN-1-YL]PYRIDAZINE-3-CARBOXYLIC ACID (2-CYCLOPROPYLETHYL)AMIDE], in series [1], the “Mouse microsome SCD activity % remaining @ 10 μM” value stood at 73%.

For the compound `CC(C)CCNC(=O)c1ccc(N2CCN(C(=O)C3(C(F)(F)F)CC3)CC2)nn1` [6-[4-(1-TRIFLUOROMETHYLCYCLOPROPANECARBONYL)PIPERAZIN-1-YL]-PYRIDAZINE-3-CARBOXYLIC ACID (3-METHYLBUTYL)AMIDE], in series [1], the “Mouse microsome SCD activity % remaining @ 10 μM” value worked out at 26%.

As for `CCC(CC)C(=O)N1CCN(c2ccc(C(=O)NCCC3CC3)nn2)CC1` [6-[4-(2-ETHYLBUTYRYL)PIPERAZIN-1-YL]PYRIDAZINE-3-CARBOXYLIC ACID (2-CYCLOPROPYLETHYL)AMIDE], in series [1], the “Mouse microsome SCD activity % remaining @ 10 μM” value is 36%.

As to `O=C(NCCc1ccccc1)c1ccc(N2CCN(C(=O)c3ccccc3C(F)(F)F)CC2)nn1` [6-[4-(2-Trifluoromethylbenzoyl)piperazin-1-yl]pyridazine-3-carboxylic acid phenethylamide], the “Mouse microsome SCD activity % remaining @ 10 μM” value in series [1] came to 0%.

As for `CC(C)CCNC(=O)c1ccc(N2CCN(C(=O)c3c(C(F)(F)F)nnn3Cc3ccccc3)CC2)nn1` [6-[4-(3-BENZYL-5-TRIFLUOROMETHYL-3H-[1,2,3]TRIAZOLE-4-CARBONYL)PIPERAZIN-1-YL]PYRIDAZINE-3-CARBOXYLIC ACID (3-METHYLBUTYL)AMIDE], the “Mouse microsome SCD activity % remaining @ 10 μM” value in series [1] turned out to be 61%.

As to `CC(C)CCNC(=O)c1ccc(N2CCN(C(=O)C(C)CC(F)(F)F)CC2)nn1` (centres unmarked) [6-[4-(4,4,4-TRIFLUORO-2-METHYLBUTYRYL)PIPERAZIN-1-YL]PYRIDAZINE-3-CARBOXYLIC ACID (3-METHYLBUTYL)AMIDE], in series [1], the “Mouse microsome SCD activity % remaining @ 10 μM” value is listed as 19%.

In the series with HEPG2, `CC(C)CCNC(=O)c1ccc(N2CCN(C(=O)CC(C)C(F)(F)F)CC2)nn1` (centres unmarked) [6-[4-(4,4,4-TRIFLUORO-3-METHYLBUTYRYL)PIPERAZIN-1-YL]PYRIDAZINE-3-CARBOXYLIC ACID (3-METHYLBUTYL)AMIDE] had a half-maximal inhibitory concentration (IC50) of 2530 nM. Besides, the “Mouse microsome SCD activity % remaining @ 10 μM” value in series [1] was found to be 11%.

As for `CC(C)CCNC(=O)c1ccc(N2CCN(C(=O)CCC(F)(F)F)CC2)nn1` [6-[4-(4,4,4-TRIFLUOROBUTYRYL)PIPERAZIN-1-YL]PYRIDAZINE-3-CARBOXYLIC ACID (3-METHYLBUTYL)AMIDE], the “Mouse microsome SCD activity % remaining @ 10 μM” value in series [1] is 42%.

For the compound `CC(C)CCNC(=O)c1ccc(N2CCN(C(=O)N3CCN(C)CC3)CC2)nn1` [6-[4-(4-METHYLPIPERAZINE-1-CARBONYL)PIPERAZIN-1-YL]PYRIDAZINE-3-CARBOXYLIC ACID (3-METHYLBUTYL)AMIDE], the “Mouse microsome SCD activity % remaining @ 10 μM” value in series [1] turned out to be 29%.

For `O=C(NCCC1CC1)c1ccc(N2CCN(C(=O)c3cc(Cl)ccc3C(F)(F)F)CC2)nn1` [6-[4-(5-CHLORO-2-TRIFLUOROMETHYLBENZOYL)PIPERAZIN-1-YL]PYRIDAZINE-3-CARBOXYLIC ACID (2-CYCLOPROPYLETHYL)AMIDE], in series [1], the “Mouse microsome SCD activity % remaining @ 10 μM” value was determined as 12%. The half-maximal inhibitory concentration (IC50) against SCD came to 90 nM.

On to `O=C(NCCC1CC1)c1ccc(N2CCN(C(=O)c3ccccn3)CC2)nn1` [6-[4-(PYRIDINE-2-CARBONYL)PIPERAZIN-1-YL]PYRIDAZINE-3-CARBOXYLIC ACID (2-CYCLOPROPYLETHYL)AMIDE], for which, in series [1], the “Mouse microsome SCD activity % remaining @ 10 μM” value is 94%.

With `CC(c1ccccc1C(F)(F)F)N1CCN(c2ccc(C(=O)NCCC3CC3)nn2)CC1.Cl` (centres unmarked) [6-{4-[1-(2-TRIFLUOROMETHYLPHENYL)ETHYL]PIPERAZIN-1-YL}-PYRIDAZINE-3-CARBOXYLIC ACID (2-CYCLOPROPYLETHYL)AMIDE HYDROCHLORIDE], the “Mouse microsome SCD activity % remaining @ 10 μM” value in series [1] turned out to be 24%.

In the case of `O=C(NCCC1CC1)c1ccc(N2CCN(C(=O)Cc3ccccc3C(F)(F)F)CC2)nn1` [6-{4-[2-(2-TRIFLUOROMETHYLPHENYL)ACETYL]PIPERAZIN-1-YL}PYRIDAZINE-3-CARBOXYLIC ACID (2-CYCLOPROPYLETHYL)AMIDE], in series [1], the “Mouse microsome SCD activity % remaining @ 10 μM” value amounted to 10%. In addition, at SCD, the midpoint of inhibition, the IC50, lay at 590 nM.

In the case of `CC(=O)Oc1ccccc1C(=O)N1CCN(c2ccc(C(=O)NCCC3CC3)nn2)CC1` [ACETIC ACID 2-{4-[6-(2-CYCLOPROPYLETHYLCARBAMOYL)PYRIDAZIN-3-YL]-PIPERAZINE-1-CARBONYL}PHENYL ESTER], the “Mouse microsome SCD activity % remaining @ 10 μM” value in series [1] came to 46%.
